Measurements as given in patent publication US20040116386A1, “Resveratrol-phospholipids complexes, their preparation, and pharmaceutical and cosmetic composition containing same” (priority 2001, published 2004).

Legend:
[1] = Permeability through rabbit colon, Ussing Chamber method; format: in vitro ADME
Description: This device consists of: 6 cells divided into two parts by a septum, which accommodate the tissue obtained from the rabbit colon; an oxygenation system; a system for the circulation of a specific buffer solution maintained at constant temperature by heating; and finally electrodes for measuring the compound concentration variations, wherefrom the apparent permeability coefficient (Papp), expressed in cm/sec, is obtained.

[2] = Pharmacokinetic study, oral administration to rats; format: in vivo; conditions: rat, blood, equimolecular doses (Resveratrol 2 mg/Kg, complex 9.13 mg/Kg)
Description: The product concentration in blood was determined at prefixed time intervals.

Papp [1]: 0.2 ×10⁻⁶ cm/s
concentration at 15 min ([2]; 15 min): 18 ng/mL
concentration at 30 min ([2]; 30 min): 34 ng/mL
concentration at 60 min ([2]; 60 min): 43 ng/mL
concentration at 120 min ([2]; 120 min): 11 ng/mL
concentration at 240 min ([2]; 240 min): 0 ng/mL
SMILES: Oc1ccc(/C=C/c2cc(O)cc(O)c2)cc1 [trans-Resveratrol]
